Drawing on ChEMBL document CHEMBL2331254, “Pyrrolopyrimidine inhibitors of DNA gyrase B (GyrB) and topoisomerase IV (ParE), Part II: development of inhibitors with broad spectrum, Gram-negative antibacterial activity” (Bioorg Med Chem Lett, 2013), this text covers MIC and Ki for 24 molecules.

The MIC is the least concentration at which growth counts as inhibited. In general, Ki refers to the dissociation constant of the complex between target and ligand, obtained from inhibition or displacement.

Test [1] deals with Escherichia coli. Kind of test: Antibacterial activity against permeabilized Escherichia coli IBAS849 by broth microdilution method. It counts as functional. For orientation: Dilution methods test growth across graded concentrations, often in twofold steps.
For test [2], the system named is Escherichia coli. Kind of test: Antibacterial activity against wild type Escherichia coli ATCC 25922 by broth microdilution method. It counts as functional.
A further test has as its system Staphylococcus aureus. Nature of the test: Antibacterial activity against Staphylococcus aureus ATCC 13709 by broth microdilution method. It counts as functional.
For test [3], the system named is Escherichia coli. Kind of test: Antibacterial activity against Escherichia coli BW25113 harboring deltatolC by broth microdilution method. It counts as functional.
Test [4] is described as follows: Inhibition of Escherichia coli parE assessed as release of inorganic phosphate from ATP hydrolysis after 30 mins by coupled spectrophotometric assay.
A short description of test [5]: Inhibition of Francisella tularensis GyrB assessed as release of inorganic phosphate from ATP hydrolysis after 30 mins by coupled spectrophotometric assay.
Test [6] is described as follows: Inhibition of Escherichia coli GyrB assessed as release of inorganic phosphate from ATP hydrolysis after 30 mins by coupled spectrophotometric assay.

Values after ≈ are worked out from the molar mass of the structure shown.

As for `CCc1[nH]c2nc(Sc3cnc4nccnc4c3)nc(N3C[C@@H]4[C@H](C3)[C@@]4(N)C(N)=O)c2c1Cl`, the MIC against Escherichia coli [1] was 2 µg/mL (≈ 4.15 µM); against Escherichia coli [2], over 64 µg/mL; against Staphylococcus aureus, 0.25 µg/mL (≈ 0.519 µM); against Escherichia coli [3] it was 0.25 µg/mL (≈ 0.519 µM). Also, the Ki in test [4] was under 1 nM.

Consider `CCc1[nH]c2nc(Sc3cccnc3)nc(Cl)c2c1Cl`, for which the MIC against Escherichia coli [1] was over 64 µg/mL; in the test with Escherichia coli [2], over 64 µg/mL; against Staphylococcus aureus, 4 µg/mL (≈ 12.3 µM). In addition, the Ki in test [5] worked out at 488 nM.

As for `CCc1[nH]c2nc(Sc3cncc(S(=O)(=O)N(C)C)c3)nc(N3C[C@@H]4[C@@H](N)[C@@H]4C3)c2c1Cl`, the MIC against Escherichia coli [1] was 32 µg/mL (≈ 64.8 µM); with Escherichia coli [2], over 64 µg/mL; with Staphylococcus aureus, 2 µg/mL (≈ 4.05 µM); in the test with Escherichia coli [3] it was 4 µg/mL (≈ 8.1 µM). In addition, the Ki in test [6] is 2 nM; in test [4], 19 nM.

In the case of `CCc1[nH]c2nc(Sc3ccc4ccc(C(=O)O)nc4c3)nc(N3CCC(N)C3)c2c1Cl` (centres undefined), the MIC is over 64 µg/mL in the test with Escherichia coli [1], over 64 µg/mL in the test with Escherichia coli [2], 2 µg/mL (≈ 4.26 µM) against Staphylococcus aureus and 8 µg/mL (≈ 17.1 µM) in the test with Escherichia coli [3]. The Ki in test [6] was under 0.5 nM; in test [4], 2 nM.

With `CCc1[nH]c2nc(Sc3ccc4[nH]cc(C(=O)O)c(=O)c4c3)nc(N3CCC(N)C3)c2c1Cl` (centres undefined), the MIC against Escherichia coli [1], in the test on Escherichia coli [2], against Staphylococcus aureus and in the test on Escherichia coli [3] was over 64 µg/mL throughout. Further, the results for the Ki in test [6] and in test [4] were under 0.5 nM and 1 nM, respectively.

`CCc1[nH]c2nc(Sc3ccc4c(N5CCC(N)C5)nc(C(=O)O)nc4c3)nc(N3CCC(N)C3)c2c1Cl` (centres undefined): the MIC against Escherichia coli [1] was found to be 4 µg/mL (≈ 7.22 µM); in the test on Escherichia coli [2], 8 µg/mL (≈ 14.4 µM); in the test on Staphylococcus aureus, 8 µg/mL (≈ 14.4 µM); in the test with Escherichia coli [3], 8 µg/mL (≈ 14.4 µM). In addition, the Ki in test [6] was under 0.5 nM; in test [4], 1 nM.

As for `CCc1[nH]c2nc(Sc3ccc4c(N)nc(C)nc4c3)nc(N3CCC(N)C3)c2c1Cl` (centres undefined), the MIC turned out to be 8 µg/mL (≈ 17.6 µM) against Escherichia coli [1], 16 µg/mL (≈ 35.2 µM) in the test on Escherichia coli [2], 2 µg/mL (≈ 4.4 µM) against Staphylococcus aureus and 2 µg/mL (≈ 4.4 µM) against Escherichia coli [3]. Moreover, the values for the Ki in test [6] and in test [4] were under 0.5 nM and 2 nM, respectively.

Turning to `CCc1[nH]c2nc(Sc3ccc4c(N5CC(N)C5)ncnc4c3)nc(N3CCC(N)C3)c2c1Cl` (centres undefined), the MIC worked out at 8 µg/mL (≈ 16.1 µM) in the test on Escherichia coli [1], 8 µg/mL (≈ 16.1 µM) with Escherichia coli [2], 16 µg/mL (≈ 32.3 µM) against Staphylococcus aureus and 4 µg/mL (≈ 8.06 µM) in the test on Escherichia coli [3]. The Ki was under 0.5 nM in test [6] and 7 nM in test [4].

Turning to `CCc1[nH]c2nc(Sc3ccc4cc5c([n+]([O-])c4c3)CCNC5)nc(N3CCC(N)C3)c2c1Cl` (centres undefined), the MIC was determined as 16 µg/mL (≈ 32.3 µM) with Escherichia coli [1], 16 µg/mL (≈ 32.3 µM) with Escherichia coli [2], 2 µg/mL (≈ 4.03 µM) against Staphylococcus aureus and 4 µg/mL (≈ 8.06 µM) in the test on Escherichia coli [3]. Further, the Ki is under 0.5 nM in test [6] and 6 nM in test [4].

Consider `CCc1[nH]c2nc(Sc3cnc4nccnc4c3)nc(N3CCC4(CCCN4)C3)c2c1Cl` (centres undefined), for which the MIC was 16 µg/mL (≈ 34.3 µM) with Escherichia coli [1], over 64 µg/mL against Escherichia coli [2], 4 µg/mL (≈ 8.57 µM) with Staphylococcus aureus and 8 µg/mL (≈ 17.1 µM) against Escherichia coli [3]. For the same molecule, the Ki is 35 nM in test [4] and 6 nM in test [5].

Regarding `CCc1[nH]c2nc(Sc3cnc4nccnc4c3)nc(N3CC4CNC4C3)c2c1Cl` (centres undefined), the MIC with Escherichia coli [1] worked out at 2 µg/mL (≈ 4.56 µM); with Escherichia coli [2], 16 µg/mL (≈ 36.5 µM); against Staphylococcus aureus it was 0.5 µg/mL (≈ 1.14 µM); in the test on Escherichia coli [3], 1 µg/mL (≈ 2.28 µM). For the same molecule, the Ki is 2 nM in test [4] and under 1 nM in test [5].

For `CCc1[nH]c2nc(Sc3cnc4nccnc4c3)nc(N3CC4CCNC4C3)c2c1Cl` (centres undefined), the MIC came to 4 µg/mL (≈ 8.83 µM) against Escherichia coli [1], 32 µg/mL (≈ 70.6 µM) against Escherichia coli [2], 1 µg/mL (≈ 2.21 µM) in the test with Staphylococcus aureus and 2 µg/mL (≈ 4.42 µM) against Escherichia coli [3]. The Ki was 6 nM in test [4] and under 1 nM in test [5].

As to `CCc1[nH]c2nc(Sc3cnc4nccnc4c3)nc(N3CC4CNCC4C3)c2c1Cl` (centres undefined), the minimum inhibitory concentration (MIC) was 8 µg/mL (≈ 17.7 µM) against Escherichia coli [1], over 64 µg/mL with Escherichia coli [2], 2 µg/mL (≈ 4.42 µM) against Staphylococcus aureus and 8 µg/mL (≈ 17.7 µM) against Escherichia coli [3]. In addition, the Ki in test [4] was 17 nM; in test [5] it was under 1 nM.

Regarding `CCNC(=O)NC1CN(c2nc(Sc3cnc4nccnc4c3)nc3[nH]c(CC)c(Cl)c23)C1`, the MIC in the test on Escherichia coli [1], in the test with Escherichia coli [2], against Staphylococcus aureus and with Escherichia coli [3] was over 64 µg/mL each time. Moreover, the Ki is 2 nM in test [4] and under 1 nM in test [5].

With `CCc1[nH]c2nc(Sc3cnc4nccnc4c3)nc(N3CC(NS(C)(=O)=O)C3)c2c1Cl`, the MIC was 32 µg/mL (≈ 65.2 µM) against Escherichia coli [1], over 64 µg/mL in the test on Escherichia coli [2] and 4 µg/mL (≈ 8.15 µM) in the test on Staphylococcus aureus. Further, the Ki is 9 nM in test [4] and under 1 nM in test [5].

Turning to `CCc1[nH]c2nc(Sc3cnc4nccnc4c3)nc(N3CC(NC(=O)C4CC4)C3)c2c1Cl`, the MIC against Escherichia coli [1] is 8 µg/mL (≈ 16.6 µM); in the test with Escherichia coli [2] it was over 64 µg/mL; in the test with Staphylococcus aureus, 1 µg/mL (≈ 2.08 µM); against Escherichia coli [3] it was 4 µg/mL (≈ 8.32 µM). Moreover, the Ki was 3 nM in test [4] and under 1 nM in test [5].

With `CCc1[nH]c2nc(Sc3cnc4nccnc4c3)nc(N3CC(NC(=O)COC)C3)c2c1Cl`, the MIC with Escherichia coli [1] was 4 µg/mL (≈ 8.25 µM); in the test on Escherichia coli [2], over 64 µg/mL; in the test with Staphylococcus aureus, 0.25 µg/mL (≈ 0.515 µM); with Escherichia coli [3] it was 2 µg/mL (≈ 4.12 µM). Moreover, the Ki in test [4] was 10 nM; in test [5] it was under 1 nM.

For the molecule `CCc1[nH]c2nc(Sc3cnc4nccnc4c3)nc(N3CC(NC(=O)c4cnccn4)C3)c2c1Cl`, the MIC came out at 8 µg/mL (≈ 15.4 µM) with Escherichia coli [1], 64 µg/mL (≈ 123 µM) against Escherichia coli [2], 1 µg/mL (≈ 1.93 µM) in the test on Staphylococcus aureus and 4 µg/mL (≈ 7.71 µM) with Escherichia coli [3]. Besides, the values for the Ki in test [4] and in test [5] were 9 nM and under 1 nM, respectively.

With `CCc1[nH]c2nc(Sc3cnc4nccnc4c3)nc(N3C[C@@H]4[C@H](C3)[C@H]4NC(=N)N)c2c1Cl`, the MIC in the test on Escherichia coli [1] was 2 µg/mL (≈ 4.16 µM); with Escherichia coli [2], 64 µg/mL (≈ 133 µM); against Staphylococcus aureus it was 0.25 µg/mL (≈ 0.52 µM); in the test with Escherichia coli [3], 2 µg/mL (≈ 4.16 µM). Moreover, the Ki in test [4] was under 1 nM.

`CCc1[nH]c2nc(Sc3cnc4nccnc4c3)nc(N3C[C@@H]4[C@H](C3)[C@@]4(N)CO)c2c1Cl`: the MIC against Escherichia coli [1] is 4 µg/mL (≈ 8.53 µM); in the test with Escherichia coli [2], 64 µg/mL (≈ 136 µM); in the test with Staphylococcus aureus it was 0.25 µg/mL (≈ 0.533 µM); in the test with Escherichia coli [3], 0.5 µg/mL (≈ 1.07 µM). Moreover, the figures for the Ki in test [4] and in test [5] were 2 nM and under 1 nM, respectively.

Regarding `CCc1[nH]c2nc(Sc3cnc4nccnc4c3)nc(N3CC(C)(N)C3)c2c1Cl`, the MIC in the test with Escherichia coli [1] was 16 µg/mL (≈ 37.5 µM); in the test with Escherichia coli [2], over 64 µg/mL; in the test on Staphylococcus aureus, 4 µg/mL (≈ 9.37 µM); in the test on Escherichia coli [3] it was 16 µg/mL (≈ 37.5 µM). The Ki was determined as 69 nM in test [4] and 16 nM in test [5].

Regarding `CCc1[nH]c2nc(Sc3cnc4nccnc4c3)nc(N3CCC(N)C3)c2c1Cl` (centres undefined), the MIC with Escherichia coli [1] was 4 µg/mL (≈ 9.37 µM); in the test with Escherichia coli [2] it was 32 µg/mL (≈ 75 µM); in the test with Staphylococcus aureus it was 1 µg/mL (≈ 2.34 µM); in the test on Escherichia coli [3], 2 µg/mL (≈ 4.68 µM). Besides, the Ki in test [4] was 11 nM; in test [5], under 1 nM.

Consider `CCc1[nH]c2nc(Sc3cnc4nccnc4c3)nc(N3CCC(NC)C3)c2c1Cl` (centres undefined), for which the MIC is 16 µg/mL (≈ 36.3 µM) against Escherichia coli [1], over 64 µg/mL with Escherichia coli [2], 2 µg/mL (≈ 4.54 µM) with Staphylococcus aureus and 8 µg/mL (≈ 18.1 µM) against Escherichia coli [3]. Also, the Ki is 40 nM in test [4] and 2 nM in test [5].

Regarding `CCc1[nH]c2nc(Sc3cnc4nccnc4c3)nc(N3CCCC(N)C3)c2c1Cl` (centres undefined), the MIC in the test on Escherichia coli [1] is 32 µg/mL (≈ 72.6 µM); in the test on Escherichia coli [2], over 64 µg/mL; with Staphylococcus aureus it was 8 µg/mL (≈ 18.1 µM); in the test on Escherichia coli [3] it was 16 µg/mL (≈ 36.3 µM). The Ki in test [4] was 131 nM; in test [5], 7 nM.
